In patent US8952024B2, “Herbicidal pyrimidone derivatives” (E I du Pont de Nemours and Company, priority 2009, dated 2015):

Key:
Type in all cases: in vivo
[1] = tested on: pigweed (Amaranthus retroflexus); assay: Test B pre-/postemergence plant response
Summary of the method: (§1)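 Seeds sown in loam–sand blend were treated preemergence, and plants at 2–18 cm (1- to 4-leaf stage) in peat-based medium were treated postemergence; compounds were formulated in non-phytotoxic solvent with surfactant. After 13–15 days in greenhouse, response was visually rated against controls, 0 (no effect) to 100 (complete control).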

[2] = tested on: nightshade (eastern black nightshade, Solanum ptycanthum); assay: Test B pre-/postemergence plant response; settings: Preemergence
Summary of the method: as §1

[3] = tested on: galium (catchweed bedstraw, Galium aparine); assay: Test B pre-/postemergence plant response; settings: Preemergence
Summary of the method: as §1

wild oat (Avena fatua) = assay: Test B pre-/postemergence plant response
Summary of the method: as §1

[4] = tested on: sunflower (common oilseed sunflower, Helianthus annuus); assay: Test B pre-/postemergence plant response; settings: Preemergence
Summary of the method: as §1

[5] = tested on: ducksalad (Heteranthera limosa); assay: Test B flooded paddy test; settings: Heteranthera limosa, 360 h
Summary of the method: (§2)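 Flooded-pot test: water raised to 3 cm above soil when treating, compound put in the water, level unchanged thereafter. Plants were at 2 leaves. Readout after 13 to 15 days, visual, relative to controls; 0 signifies no effect and 100 complete control.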

rice (Oryza sativa) = assay: Test B flooded paddy test; settings: Oryza sativa
Summary of the method: as §2

[6] = tested on: umbrella sedge (Cyperus difformis); assay: Test B flooded paddy test; settings: Cyperus difformis, 360 h
Summary of the method: as §2

[7] = tested on: barnyardgrass (Echinochloa crus-galli); assay: Test B flooded paddy test; settings: Echinochloa crus-galli, 360 h
Summary of the method: as §2

[8] = tested on: canarygrass (Phalaris minor); assay: Test B postemergence plant response; settings: Postemergence
Summary of the method: (§3)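 Plants at the 1- to 4-leaf stage (2 to 18 cm tall), grown in pots of peat moss/vermiculite medium with wetting agent and starter nutrients, received postemergence applications of test chemicals. After 13 to 15 days in a greenhouse, injury was rated visually against untreated controls on a 0 (no effect) to 100 (complete control) scale.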

[9] = tested on: winter barley (Hordeum vulgare); assay: Test B postemergence plant response; settings: Postemergence
Summary of the method: as §3

[10] = tested on: windgrass (Apera spica-venti); assay: Test B postemergence plant response; settings: Apera spica-venti, post-emergence, 360 h; Postemergence, 125 g ai/ha; visual rating after 13 to 15 days, scale 0 (no effect) to 100 (complete control)
Summary of the method: as §3

[11] = tested on: chickweed (Stellaria media); assay: Test B postemergence plant response; settings: Postemergence
Summary of the method: as §3

[12] = Preemergence, 125 g ai/ha, 0 to 100 scale
[13] = 31 g ai/ha, scale 0 to 100 (0 no effect, 100 complete control)
[14] = 62 g ai/ha, scale 0 to 100, 0 no effect, 100 complete control

Cc1c(F)cccc1-n1c(-c2ccccc2)ncc(C(=O)C2=C(O)CCCC2=O)c1=O [Compound 47, 3-(3-fluoro-2-methylphenyl)-5-[(2-hydroxy-6-oxo-1-cyclohexen-1-yl)carbonyl]-2-phenyl-4(3H)-pyrimidinone]
pest or weed control at 62 g/ha ([1]; Amaranthus retroflexus, post-emergence, Postemergence, 62 g ai/ha, scale 0 (no effect) to 100 (complete control), 13 to 15 days, read-out: Plant response rating, Pigweed): 98%
pest or weed control at 125 g/ha ([1]; Amaranthus retroflexus, post-emergence, Postemergence, 125 g ai/ha, visual rating after 13 to 15 days, scale 0 (no effect) to 100 (complete control)): 100%
pest or weed control at 250 g/ha ([1]; Amaranthus retroflexus, pre-emergence, 250 g ai/ha, Preemergence, 0 to 100 scale, read-out: Plant response rating, Pigweed): 100%
pest or weed control at 31 g/ha ([1]; Amaranthus retroflexus, pre-emergence, Preemergence, 31 g ai/ha, scale 0 to 100 (0 no effect, 100 complete control), read-out: Plant response rating, Pigweed): 98%
Pigweed plant response rating [1, 12]: 100
Plant response rating, Nightshade ([2]; 250 g ai/ha, 0 to 100 scale): 100
Plant response rating, Nightshade [2, 13]: 100
Plant response rating, Nightshade [2, 14]: 100
Nightshade plant response rating ([2]; 125 g ai/ha, 0 to 100 scale): 100
Plant response rating, Galium ([3]; 250 g ai/ha, 0 to 100 scale): 95
Plant response rating, Galium [3, 13]: 50
Plant response rating, Galium [3, 14]: 50
Galium plant response rating ([3]; 125 g ai/ha, 0 to 100 scale): 50
pest or weed control at 62 g/ha (wild oat (Avena fatua); Avena fatua, post-emergence, Postemergence, 62 g ai/ha, scale 0 (no effect) to 100 (complete control), 13 to 15 days, read-out: Plant response rating, Oat, Wild): 60%
pest or weed control at 125 g/ha (wild oat (Avena fatua); Avena fatua, post-emergence, Postemergence, 125 g ai/ha, visual rating after 13 to 15 days, scale 0 (no effect) to 100 (complete control)): 60%
pest or weed control at 250 g/ha (wild oat (Avena fatua); Avena fatua, pre-emergence, 250 g ai/ha, Preemergence, 0 to 100 scale, read-out: Plant response rating, Oat, Wild): 10%
pest or weed control at 31 g/ha (wild oat (Avena fatua); Avena fatua, pre-emergence, Preemergence, 31 g ai/ha, scale 0 to 100 (0 no effect, 100 complete control), read-out: Plant response rating, Oat, Wild): 0%
Oat, Wild plant response rating (wild oat (Avena fatua); [12]): 0
Plant response rating, Sunflower ([4]; 250 g ai/ha, 0 to 100 scale): 85
Plant response rating, Sunflower [4, 13]: 65
Sunflower plant response rating ([4]; 125 g ai/ha, 0 to 100 scale): 80
pest or weed control at 250 g/ha ([5]; 250 g ai/ha, flooded paddy test, visual rating on 0 to 100 scale (0 no effect, 100 complete control) after 13 to 15 days, read-out: Plant response rating, Flood, Ducksalad): 95%
pest or weed control at 62 g/ha ([5]; Flood (flooded paddy test), 62 g ai/ha, scale of 0 to 100 where 0 is no effect and 100 is complete control, 13 to 15 days, read-out: Plant response rating, Ducksalad): 65%
plant injury at 250 g/ha (rice (Oryza sativa); 250 g ai/ha, flooded paddy test, visual rating on 0 to 100 scale (0 no effect, 100 complete control) after 13 to 15 days, read-out: Plant response rating, Flood, Rice): 25%
plant injury at 62 g/ha (rice (Oryza sativa); Flood (flooded paddy test), 62 g ai/ha, scale of 0 to 100 where 0 is no effect and 100 is complete control, 13 to 15 days, read-out: Plant response rating, Rice): 15%
pest or weed control at 250 g/ha ([6]; 250 g ai/ha, flooded paddy test, visual rating on 0 to 100 scale (0 no effect, 100 complete control) after 13 to 15 days, read-out: Plant response rating, Flood, Sedge, Umbrella): 85%
pest or weed control at 62 g/ha ([6]; Flood (flooded paddy test), 62 g ai/ha, scale of 0 to 100 where 0 is no effect and 100 is complete control, 13 to 15 days, read-out: Plant response rating, Sedge, Umbrella): 70%
pest or weed control at 250 g/ha ([7]; 250 g ai/ha, flooded paddy test, visual rating on 0 to 100 scale (0 no effect, 100 complete control) after 13 to 15 days, read-out: Plant response rating, Flood, Barnyardgrass): 20%
pest or weed control at 62 g/ha ([7]; Flood (flooded paddy test), 62 g ai/ha, scale of 0 to 100 where 0 is no effect and 100 is complete control, 13 to 15 days, read-out: Plant response rating, Barnyardgrass): 0%
pest or weed control at 31 g/ha ([8]; Phalaris minor, post-emergence, 360 h, 31 g ai/ha, scale 0 to 100 (0 no effect, 100 complete control), read-out: Plant response rating, Canarygrass): 20%
pest or weed control at 62 g/ha ([8]; Phalaris minor, post-emergence, 360 h, 62 g ai/ha, scale 0 (no effect) to 100 (complete control), 13 to 15 days, read-out: Plant response rating, Canarygrass): 30%
pest or weed control at 125 g/ha ([8]; Phalaris minor, post-emergence, 360 h, 125 g ai/ha, visual rating after 13 to 15 days, scale 0 (no effect) to 100 (complete control)): 40%
Canarygrass plant response rating ([8]; 250 g ai/ha, scale 0 to 100): 40
plant injury at 31 g/ha ([9]; Hordeum vulgare, post-emergence, 31 g ai/ha, scale 0 to 100 (0 no effect, 100 complete control), read-out: Plant response rating, Barley): 5%
plant injury at 62 g/ha ([9]; Hordeum vulgare, post-emergence, 62 g ai/ha, scale 0 (no effect) to 100 (complete control), 13 to 15 days, read-out: Plant response rating, Barley): 10%
plant injury at 125 g/ha ([9]; Hordeum vulgare, post-emergence, 125 g ai/ha, visual rating after 13 to 15 days, scale 0 (no effect) to 100 (complete control)): 10%
Barley plant response rating ([9]; 250 g ai/ha, scale 0 to 100): 35
pest or weed control at 125 g/ha [10]: 80%
Chickweed plant response rating ([11]; 250 g ai/ha, scale 0 to 100): 100
pest or weed control at 31 g/ha ([11]; Stellaria media, post-emergence, 360 h, 31 g ai/ha, scale 0 to 100 (0 no effect, 100 complete control), read-out: Plant response rating, Chickweed): 85%
pest or weed control at 62 g/ha ([11]; Stellaria media, post-emergence, 360 h, 62 g ai/ha, scale 0 (no effect) to 100 (complete control), 13 to 15 days, read-out: Plant response rating, Chickweed): 98%
pest or weed control at 125 g/ha ([11]; Stellaria media, post-emergence, 360 h, 125 g ai/ha, visual rating after 13 to 15 days, scale 0 (no effect) to 100 (complete control)): 100%
